Data on 5 molecules can be found in publication PMC11997989, “Design of Novel Mercapto-3-phenylpropanoyl Dipeptides as Dual Angiotensin-Converting Enzyme C–Domain-Selective/Neprilysin Inhibitors” (Journal of Medicinal Chemistry, 2025).

The term IC50 denotes the concentration at which inhibition is half-maximal. The Ki is a dissociation constant, usually derived from enzyme kinetics or from competition with a known ligand.

Some results are limits rather than exact numbers.

The target of data set [1] is T1, human NEP ectodomain (Homo sapiens, UniProt P08473).
T1 construct: A purified human NEP ectodomain was used in continuous activity assays; made in house
T1 sequence (P08473 52-750 limits assumed): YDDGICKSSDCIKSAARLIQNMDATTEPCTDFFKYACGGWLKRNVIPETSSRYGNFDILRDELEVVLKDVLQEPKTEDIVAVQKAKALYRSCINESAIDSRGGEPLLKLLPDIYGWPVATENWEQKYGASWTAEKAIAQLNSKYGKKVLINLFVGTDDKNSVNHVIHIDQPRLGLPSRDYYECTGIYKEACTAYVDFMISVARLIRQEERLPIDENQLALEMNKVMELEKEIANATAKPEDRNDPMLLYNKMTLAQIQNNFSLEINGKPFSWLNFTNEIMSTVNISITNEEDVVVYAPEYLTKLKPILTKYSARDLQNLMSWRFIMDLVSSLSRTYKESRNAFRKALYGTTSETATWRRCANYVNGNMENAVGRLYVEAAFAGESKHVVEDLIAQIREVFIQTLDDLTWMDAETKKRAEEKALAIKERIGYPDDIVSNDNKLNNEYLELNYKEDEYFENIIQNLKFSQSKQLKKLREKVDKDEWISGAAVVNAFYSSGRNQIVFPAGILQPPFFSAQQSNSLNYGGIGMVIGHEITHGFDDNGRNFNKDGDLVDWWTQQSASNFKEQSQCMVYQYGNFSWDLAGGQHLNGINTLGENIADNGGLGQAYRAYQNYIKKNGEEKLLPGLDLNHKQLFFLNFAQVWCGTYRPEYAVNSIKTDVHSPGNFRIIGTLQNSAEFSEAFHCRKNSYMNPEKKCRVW
The experiment in a line: NEP inhibition assay (continuous fluorogenic activity assay). The data set is classed as biochemical. Particulars: for IC50: 0.4 nM NEP, mean ± standard error, n ≥ 2. The text has this:
Furthermore, while comparing Ki values (assuming they can be accurately determined in vitro using available kinetic models) provides information on the relative binding affinities in the absence of substrate, in vivo the extent of enzyme inhibition will be affected by the relative concentrations and affinities of the physiological substrates competing for the binding sites.

In data set [2] the target is T2, nACE (Homo sapiens, UniProt P12821).
T2 construct: using purified recombinant single domain human ACE proteins and the human NEP ectodomain as previously described; made in house
T2 sequence (P12821 40-624 limits assumed): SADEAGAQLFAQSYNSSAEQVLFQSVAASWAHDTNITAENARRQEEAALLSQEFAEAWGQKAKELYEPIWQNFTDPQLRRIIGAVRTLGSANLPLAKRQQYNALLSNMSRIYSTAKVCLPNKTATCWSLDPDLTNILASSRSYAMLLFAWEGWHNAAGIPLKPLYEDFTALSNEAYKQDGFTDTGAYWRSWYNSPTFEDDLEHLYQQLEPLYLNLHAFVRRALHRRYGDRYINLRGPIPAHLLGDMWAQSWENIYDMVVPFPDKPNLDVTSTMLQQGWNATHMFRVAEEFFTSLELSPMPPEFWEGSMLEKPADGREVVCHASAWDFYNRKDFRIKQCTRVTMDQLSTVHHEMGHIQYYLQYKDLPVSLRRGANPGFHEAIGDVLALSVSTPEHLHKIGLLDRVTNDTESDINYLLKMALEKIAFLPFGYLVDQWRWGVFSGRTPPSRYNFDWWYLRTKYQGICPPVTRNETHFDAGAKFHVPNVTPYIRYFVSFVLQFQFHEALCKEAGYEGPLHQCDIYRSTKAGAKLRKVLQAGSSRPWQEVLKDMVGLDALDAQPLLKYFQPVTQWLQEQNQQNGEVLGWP
The experiment in a line: ACE inhibition assay, nACE (fluorogenic end point, Z-FHL). The data set is classed as biochemical. Particulars: for reduction in affinity for nACE compared to omapatrilat: factor, from IC50 values; for IC50: ~1 nM nACE, 0.5 mM Z-FHL, mean ± standard error, n ≥ 2. The text has this:
(§1) For an accurate comparison of the inhibitor potencies across different enzymes and substrates, it is preferable to determine inhibition constants (Ki values). […] In the case of these new analogues, it was more challenging to accurately determine Ki values that could reliably be used to determine selectivity. […] This highlights the challenges in extrapolating data from in vitro assays to predict in vivo selectivity between targets. Furthermore, while comparing Ki values (assuming they can be accurately determined in vitro using available kinetic models) provides information on the relative binding affinities in the absence of substrate, in vivo the extent of enzyme inhibition will be affected by the relative concentrations and affinities of the physiological substrates competing for the binding sites. Given that accurate Ki values could not be calculated in a consistent manner for all compound-enzyme combinations, IC50 values are reported (Table 1).
(§2) Purified fully glycosylated human cACE and nACE proteins[36],[37] were used in fluorogenic end point activity assays utilizing Cbz-Phe-His-Leu (Z-FHL, Bachem Ltd., nACE Km = 600 μM; cACE Km = 60 μM) as the substrate as previously described.[32] Final reactions contained ∼1 nM nACE/cACE and 0.5 mM Z-FHL.

The target of data set [3] is T3, cACE (Homo sapiens, UniProt P12821).
T3 construct: using purified recombinant single domain human ACE proteins and the human NEP ectodomain as previously described; made in house
T3 sequence (P12821 643-1222 limits assumed): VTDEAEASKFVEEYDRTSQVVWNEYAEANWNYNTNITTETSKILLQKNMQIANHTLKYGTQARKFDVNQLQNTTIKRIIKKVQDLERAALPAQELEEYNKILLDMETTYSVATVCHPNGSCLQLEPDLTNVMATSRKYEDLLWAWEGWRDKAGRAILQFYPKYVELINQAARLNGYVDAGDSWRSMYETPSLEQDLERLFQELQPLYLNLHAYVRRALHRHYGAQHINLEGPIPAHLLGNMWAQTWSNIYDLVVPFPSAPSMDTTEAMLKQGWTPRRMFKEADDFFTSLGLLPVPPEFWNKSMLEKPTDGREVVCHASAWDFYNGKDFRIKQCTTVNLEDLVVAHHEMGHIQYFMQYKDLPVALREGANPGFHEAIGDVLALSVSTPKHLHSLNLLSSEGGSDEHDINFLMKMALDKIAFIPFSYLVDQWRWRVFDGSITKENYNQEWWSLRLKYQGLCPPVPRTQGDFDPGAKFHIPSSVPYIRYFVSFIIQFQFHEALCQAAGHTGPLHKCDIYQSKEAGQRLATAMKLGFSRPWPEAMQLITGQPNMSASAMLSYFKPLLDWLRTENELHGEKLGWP
The experiment in a line: ACE inhibition assay, cACE (fluorogenic end point, Z-FHL). The data set is classed as biochemical. Particulars: for C-selectivity factor: nACE IC50/cACE IC50; for IC50: ~1 nM cACE, 0.5 mM Z-FHL, mean ± standard error, n ≥ 2.
Description: as §1, §2

A further data set concerns the target T4, NEP (Homo sapiens, UniProt P08473).
T4 construct: A purified human NEP ectodomain was used in continuous activity assays; made in house
The experiment in a line: Michaelis-Menten inhibition kinetics (mode of inhibition), NEP. The data set is classed as biochemical. Particulars: enzyme and inhibitor pre-incubated 15 min; best-fitting model.

Data set [4] addresses T2, nACE. Briefly: Michaelis-Menten inhibition kinetics (mode of inhibition), nACE. The data set is classed as biochemical. Particulars: enzyme and inhibitor pre-incubated 15 min; best-fitting model. Here is the method:
(§3) page 9: curve. […] The apparent […]) obtained from this equation can then be converted to K i as for an IC50 value using Equation 1 provided the substrate competes with the inhibitor for the active site. (Et [[…] = V0(1 - i i ) Eq 2 2Et Where Vo is activity in absence of inhibitor, Vi is activity in presence of inhibitor, [I] is inhibitor concentration and Et is total enzyme concentration. Due to the slow binding of many protease inhibitors, inhibitors are typically pre-incubated with the enzyme prior to the addition of substrate to ensure that inhibition constants are measured under steady-state conditions. Accordingly, if an inhibitor forms a very tight complex with the enzyme resulting in a very slow off-rate, the inhibitor may not dissociate in the time of the experiment. Determining the Ki values for the mercaptoacyl inhibitors was challenging due to the chemical instability of the thiol group (although this was controlled by making up fresh stock before each experiment and diluting them immediately), the high potency, and the slow off rates observed in some cases, particularly for cACE. […] This is exemplified by the data for AD016. […] The K i values for the cACE determined in from this model were also inconsistent and were influence by the amount of enzyme used to the assay, again indicative of tight-binding conditions (Figure S1 C and D). […]

The target in data set [5] is T3, cACE. The experiment in a line: Michaelis-Menten inhibition kinetics (mode of inhibition), cACE. The data set is classed as biochemical. Particulars: enzyme and inhibitor pre-incubated 15 min; best-fitting model. The method, then: as §3
Data set [6] has as its target T2, nACE. Briefly: Jump dilution assay, nACE. Particulars: 15 min pre-incubation, 20-fold dilution, activity immediately and ~3 h later, 1 mM Z-FHL. The data set is classed as biochemical. The method, then: (§4) Figure S2: Jump dilution experiment forAD016. A) Enzyme and inhibitor were pre-incubated for 15 min and then an aliquot of each was removed and diluted 20-fold in assay buffer. Activity assays were performed on both the undiluted (A and C) and diluted (B and D) enzyme-inhibitor mixes immediately and ~3h. later. Reaction was initiated with Z-FHL substrate (1mM final concentration). Final enzyme and inhibitor concentrations are […]
(§5) The Morrison equation was fitted to the same data but gave a poor fit when Et was constrained to the enzyme concentration used in the assay and an unrealistic Et if this value was left unconstrained (Figure S3 C & D). The obvious explanation for the high Et predicted by the model is that the inhibitor concentration is much lower than […]
(§6) the nACE data would imply the inhibitor concentration is ~350-fold lower than expected while the cACE data implies it is 40-fold lower than expected. The same inhibitor dilution series was […]
(§7) (1 picture or pasted object on this page, not shown here)
(§8) Figure S4: Morrison plots for the inhibition of cACE by compound AD016. Two assays with carried out in parallel. One using 1nM final enzyme concentration and the other using 5-fold less (0.2nM). The model was fitted without constraining the Et. The Et predicted from data set using the Morrison equation is indicated on the graph. […]

For data set [7], the target named is T3, cACE. The experiment in a line: Jump dilution assay, cACE. The data set is classed as biochemical. Particulars: 15 min pre-incubation, 20-fold dilution, activity immediately and ~3 h later, 1 mM Z-FHL. The method, then:
as §4, §5, §6, §7, §8

The target of data set [8] is T1, human NEP ectodomain. Also on record: method as in PMID 35113565. Particulars: stated in discussion, LisW data previously reported; cited from earlier work.
A further data set relates to patients. Particulars: OCTAVE study, higher than the ACE inhibitor enalapril; cited from earlier work.
Where [9] appears, read: 5 μM MCA-RPPGFSAFK(Dnp)-OH substrate.

T4 sequence (P08473 52-750 limits assumed): as the sequence (P08473 52-750 limits assumed) above

With `O=C(NCC(=O)N1[C@@H](c2cccc(O)c2)CC[C@H]1C(=O)O)[C@@H](S)Cc1ccc(O)cc1` [AD014, (2S,5R)-5-(3-Hydroxyphenyl)-1-(((S)-3-(4-hydroxyphenyl)-2-mercaptopropanoyl)glycyl)pyrrolidine-2-carboxylic Acid], the IC50 at human NEP ectodomain [1] (setting [9]) came to 20 ± 10 nM. Moreover, at nACE [2], the “reduction in affinity for nACE compared to omapatrilat” value is about 10 and the IC50 turned out to be 20 ± 7 nM. The “reduction in affinity for cACE compared to omapatrilat” value on cACE [3] (factor, from IC50 values) is on record as about 10. For the same molecule, the C-selectivity factor on cACE [3] was determined as 2.

On to `Cc1ccc([C@H]2CC[C@@H](C(=O)O)N2C(=O)CNC(=O)[C@@H](S)Cc2ccccc2)cc1` [AD015, (2S,5R)-1-(((S)-2-Mercapto-3-phenylpropanoyl)glycyl)-5-(p-tolyl)pyrrolidine-2-carboxylic Acid], for which the IC50 stood at 9 ± 3 nM at human NEP ectodomain [1] (setting [9]), 19 ± 1 nM on nACE [2] and 0.8 ± 0.2 nM on cACE [3]. Also, the “selectivity for NEP over nACE” value on human NEP ectodomain [1] (from IC50 values) stood at 2 fold. Further, on nACE [2], the “reduction in affinity for nACE compared to omapatrilat” value worked out at 10.

Take `NCCCC[C@H](NC(=O)[C@@H](S)Cc1ccccc1)C(=O)N[C@@H](Cc1c[nH]c2ccccc12)C(=O)O` [AD016, ((S)-2-Mercapto-3-phenylpropanoyl)-L-lysyl-L-tryptophan]: the IC50 against human NEP ectodomain [1] (setting [9]) was found to be 1200 ± 200 nM; on human NEP ectodomain [1] (5 μM MCA-[…](Dnp)-OH substrate) it was 1000 nM; at nACE [2] it was 150 ± 20 nM. Further, the “improved NEP inhibitory activity compared to LisW” value on human NEP ectodomain [1] (ratio of NEP IC50 values, LisW vs compound) was “over 200 fold”. Further, on cACE [3], the C-selectivity factor is listed as 21. At NEP, the “mode of inhibition of NEP” value is recorded as “competitive inhibition”. Moreover, at nACE [4], the “mode of inhibition of nACE” value was “competitive inhibition”. Moreover, the “mode of inhibition of cACE” value at cACE [5] is “non-competitive”. Further, the “dissociation from nACE on jump dilution” value at nACE [6] is “dissociates from nACE when diluted”. Moreover, the “dissociation from cACE on jump dilution” value at cACE [7] was “remains tightly bound”.

As to `NCCCC[C@H](N[C@@H](CCc1ccccc1)C(=O)O)C(=O)N[C@@H](Cc1c[nH]c2ccccc12)C(=O)O` [LisW, Lisinopril-tryptophan], at human NEP ectodomain [8], the Ki is over 150000 nM.

For the molecule `O=C(N[C@H]1CCS[C@H]2CCC[C@@H](C(=O)O)N2C1=O)[C@@H](S)Cc1ccccc1` [Omapatrilat, reference compound], the IC50 against human NEP ectodomain [1] (setting [9]) was 10 nM; on nACE [2], 2 ± 0.1 nM; at cACE [3], 1 ± 0.1 nM. Besides, the “incidence of angioedema relative to enalapril” value in the data set with patients is recorded as 3 fold.
